Results on 13 compounds are retold here after patent US11760722B2 (priority 2022, dated 2023).

Read-outs that look alike come from different tables or passages of the source.

In one test the test system is SARS-CoV-2 replicon. Description: microbe, parasite or virus in culture. Type of test: cell-based. The following applies: read-out: Replicon EC50. In general terms: Replicon systems follow genome replication, usually without infectious particles.
The subject of test [1] is human coronavirus (HCoV) 229E. Briefly: microbe, parasite or virus in culture. The class given is cell-based, human coronavirus 229E. The following applies: MRCS cells, HCoV 229E, 3 days, CellTiter Glo, read-out: 229E CPE EC50.
Setting [2] is: Severe acute respiratory syndrome coronavirus 2, Huh-7, 24 h.
Setting [3] is: unidentified human coronavirus, 72 h.

In general, EC50 refers to the concentration at which the effect is half-maximal. In the case of `CC(C)(C)[C@H](NC(=O)C(F)(Cl)C(F)(F)F)C(=O)N1C[C@H]2[C@@H]([C@H]1C(=O)N[C@H](C#N)C[C@@H]1CCNC1=O)C2(C)C` (stereo partly drawn) [Compound 75], the EC50 in the test on SARS-CoV-2 replicon (setting [2]) worked out at 6.9 nM; in the test on SARS-CoV-2 replicon, 13 nM; in test [1] it was 118 nM; in test [1] (setting [3]), 92 nM.

For the compound `CC(C)(C)[C@H](NC(=S)NC1CC1)C(=O)N1C[C@H]2[C@@H]([C@H]1C(=O)N[C@H](C#N)C[C@@H]1CCNC1=O)C2(C)C` [Compound 76], the EC50 came out at 380 nM in the test on SARS-CoV-2 replicon (setting [2]), 480 nM in the test with SARS-CoV-2 replicon, 7550 nM in test [1] and 6320 nM in test [1] (setting [3]).

Take `CN(C)C(=S)N[C@H](C(=O)N1C[C@H]2[C@@H]([C@H]1C(=O)N[C@H](C#N)C[C@@H]1CCNC1=O)C2(C)C)C(C)(C)C` [Compound 77]: the EC50 in the test on SARS-CoV-2 replicon (setting [2]) came out at 4120 nM; in test [1] (setting [3]), 21100 nM.

As to `CNC(=S)N[C@@H](CC1CCC1)C(=O)N1C[C@H]2[C@@H]([C@H]1C(=O)N[C@H](C#N)C[C@@H]1CCNC1=O)C2(C)C` [Compound 78], the EC50 was 1860 nM with SARS-CoV-2 replicon (setting [2]) and 12600 nM in test [1] (setting [3]).

Turning to `CC(C)(C)[C@H](NS(=O)(=O)c1cccc(F)c1)C(=O)N1C[C@H]2[C@@H]([C@H]1C(=O)N[C@H](C#N)C[C@@H]1CCNC1=O)C2(C)C` [Compound 79], the EC50 in the test on SARS-CoV-2 replicon (setting [2]) was 81 nM; in the test on SARS-CoV-2 replicon it was 140 nM; in test [1], 266 nM; in test [1] (setting [3]), 256 nM.

Turning to `CC(C)(C)[C@H](NC(=O)C(F)(F)C(F)(F)Cl)C(=O)N1C[C@H]2[C@@H]([C@H]1C(=O)N[C@H](C#N)C[C@@H]1CCNC1=O)C2(C)C` [Compound 80], the EC50 was found to be 6.5 nM in the test with SARS-CoV-2 replicon (setting [2]), 13 nM with SARS-CoV-2 replicon, 116 nM in test [1] and 92 nM in test [1] (setting [3]).

As to `CC(C)(C)[C@H](NC(=O)C12CC(C(F)(F)F)(C1)C2)C(=O)N1C[C@H]2[C@@H]([C@H]1C(=O)N[C@H](C#N)C[C@@H]1CCNC1=O)C2(C)C` [Compound 81], the EC50 in the test on SARS-CoV-2 replicon (setting [2]) was 1990 nM; in test [1] (setting [3]), 6860 nM.

Take `CC(C)(C)[C@H](NS(=O)(=O)c1ccc2c(c1)CCO2)C(=O)N1C[C@H]2[C@@H]([C@H]1C(=O)N[C@H](C#N)C[C@@H]1CCNC1=O)C2(C)C` [Compound 83]: the concentration for a half-maximal effect (EC50) in the test with SARS-CoV-2 replicon (setting [2]) was 44 nM; in the test with SARS-CoV-2 replicon, 72 nM; in test [1], 1060 nM; in test [1] (setting [3]), 838 nM.

Turning to `C=CS(=O)(=O)N[C@H](C(=O)N1C[C@H]2[C@@H]([C@H]1C(=O)N[C@H](C#N)C[C@@H]1CCNC1=O)C2(C)C)C(C)(C)C` [Compound 84], the EC50 in the test on SARS-CoV-2 replicon (setting [2]) stood at 290 nM; in test [1] (setting [3]), 910 nM.

Turning to `CC(C)(C)[C@H](NS(=O)(=O)C[C@@]12CC[C@@H](CC1=O)C2(C)C)C(=O)N1C[C@H]2[C@@H]([C@H]1C(=O)N[C@H](C#N)C[C@@H]1CCNC1=O)C2(C)C` [Compound 86], the 50% effective concentration (EC50) worked out at 4020 nM with SARS-CoV-2 replicon (setting [2]) and 9630 nM in test [1] (setting [3]).

For the compound `CC(C)(C)NC(=O)N[C@H](C(=O)N1C[C@H]2[C@@H]([C@H]1C(=O)N[C@H](C#N)C[C@@H]1CCNC1=O)C2(C)C)C(C)(C)C` [Compound 87], the EC50 in the test with SARS-CoV-2 replicon (setting [2]) was 450 nM; in the test on SARS-CoV-2 replicon, 800 nM; in test [1] it was 14000 nM; in test [1] (setting [3]), 9070 nM.

`CC(C#N)C(=O)N[C@H](C(=O)N1C[C@H]2[C@@H]([C@H]1C(=O)N[C@H](C#N)C[C@@H]1CCNC1=O)C2(C)C)C(C)(C)C` (stereo partly drawn) [Compound 88]: the 50% effective concentration (EC50) came out at 190 nM with SARS-CoV-2 replicon (setting [2]), 250 nM in the test on SARS-CoV-2 replicon, 4560 nM in test [1] and 2500 nM in test [1] (setting [3]).

Consider `CC(C)(C)[C@H](NS(=O)(=O)c1ccc(OC(F)(F)F)cc1)C(=O)N1C[C@H]2[C@@H]([C@H]1C(=O)N[C@H](C#N)C[C@@H]1CCNC1=O)C2(C)C` [Compound 89], for which the concentration giving a half-maximal response (EC50) was found to be 140 nM with SARS-CoV-2 replicon (setting [2]), 160 nM in the test with SARS-CoV-2 replicon, 468 nM in test [1] and 322 nM in test [1] (setting [3]).
